In patent US20080299076A1, “Compunds and compositions that cause non-apoptotic cell death and uses thereof” (priority 2006, published 2008):

Key:
PARP1 = PARP1 cleavage (western blot); assay type: cell-based, human; conditions: BJ-TERT/LT/ST/RAS^V12 cells; staurosporine 1 μM 6 h, camptothecin 1 μM 18 h, erastin 20 μg/mL
Procedure: BJ-TERT/LT/ST/RAS^V12 tumor cells were seeded in six-well dishes, incubated overnight at 37° C. with 5% CO2 and were treated with nothing (NT), staurosporine (ST, 1 μM) for 6 h, camptothecin (C, 1 μM) for 18 h, or erastin (20 μg/mL) for the indicated time, lysed and analyzed by western blot with an anti-PARP1 antibody. A relatively high concentration of erastin was used to ensure loss of PARP cleavage was not due to a concentration-dependent effect.
BJ-TERT/LT/ST/RAS^V12 cells were seeded in polystyrene 100×20 mm dishes (Falcon/#353003) in 10 ml of media. Three million cells were seeded in each dish. After overnight incubation at 37° C. with 5% CO2, BJ-TERT/LT/ST/RAS^V12 cells were treated with nothing, staurosporine (1 μM) for 6 h, camptothecin (1 μM) for 18 h or erastin (20 μg/mL) for 6, 10, 12, 12.5, 13, 14, 18 or 26 h, and prepared for western blotting.

cytochrome c = assay: Cytochrome c release from mitochondria; assay type: cell-based, human; conditions: BJ-TERT/LT/ST/RAS^V12 cells; staurosporine 1 μM or erastin 20 μg/mL, 6 h
Procedure: BJ-TERT/LT/ST/RAS^V12 cells were seeded in polystyrene 100×20 mm dishes in 10 ml media. After overnight incubation at 37° C. with 5% CO2, the cells were treated with nothing (NT), staurosporine (ST, 1 μM) or erastin (20 μg/mL) for 6 h, washed with 10 mL ice-cold PBS and lysed by passage through a 25-gauge needle (five strokes). Cell lysates were centrifuged at 1850 rpm for 5 min at 4° C. to remove the nuclear fraction. Mitochondria were removed from the soluble cytosolic fraction by pelleting at 10,000 rpm. Supernatant and mitochondrial pellets were solubilized in SDS-PAGE loading buffer and analyzed by western blot using anti-cytochrome c and pan-VDAC antibodies and IR-dye-linked secondary antibodies. VDACs are mitochondrial proteins, so their absence in the cytosolic lane indicates effective separation of cytosol (C) from mitochondria (M). Fluorescence was detected on a LI-COR Odyssey infrared scanner.
For the cytochrome c release assay, cells were washed with 10 mL of ice-cold PBS, suspended in 120 μL of buffer (300 mM sucrose, 0.1% BSA, 10 mM HEPES, pH 7.5, 10 mM KCl, 1.5 mM MgCl2, 1 mM EGTA, 1 mM EDTA, 1 mM dithiothreitol, 2 mM phenylmethanesulfonyl fluoride and 1 protease inhibitor tablet (Roche)) and incubated on ice for 15 min. […] Supernatant and mitochondrial pellets were solubilized in SDS-PAGE loading buffer and analyzed by western blotting.

VDAC2 = biological target: T1, VDAC2 (Homo sapiens, UniProt P45880); assay: VDAC2 binding assay (competition with radiolabelled erastin A9); conditions: competition with tritium-labeled erastin A9
T1 construct: hexahistidine (pET-15b, thrombin site) (N); made in house; host or cells: E. coli
T1 sequence (P45880 1-294): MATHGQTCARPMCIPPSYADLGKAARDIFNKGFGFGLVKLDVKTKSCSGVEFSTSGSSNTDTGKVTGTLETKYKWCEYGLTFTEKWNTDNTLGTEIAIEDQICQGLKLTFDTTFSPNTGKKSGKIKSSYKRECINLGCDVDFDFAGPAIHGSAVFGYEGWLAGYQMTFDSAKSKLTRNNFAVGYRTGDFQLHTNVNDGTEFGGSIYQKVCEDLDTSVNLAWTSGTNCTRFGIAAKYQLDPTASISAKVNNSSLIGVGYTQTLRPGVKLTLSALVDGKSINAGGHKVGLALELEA
Procedure: Given the interactions between erastin and VDAC using affinity-based target identification and VDAC functional assays, the direct binding of erastin to VDACs was investigated.
VDAC2 protein was isolated from E. coli using a modified version of the protocol originally described by Koppel et al. Bacterial cultures were grown in LB containing 50 mg/L ampicillin to an OD of 0.6, and induced using […] IPTG overnight. Cultures were harvested by centrifugation at 6000×g for 10 min. The pellet was then washed with dH2O and resuspended in buffer (20% sucrose, 20 mM Tris, pH 8.0, […] lysozyme) and incubated at 25° C. for 10 minutes. The lysate was then sonicated for 2×30 seconds and centrifuged at 15000×g for 20 minutes. The pellet was resuspended in resuspension buffer (4.5 M guanidine-HCl, 0.1M NaCl, 20 mM Tris, pH 8.0) and incubated for 1 hour at 25° C. The suspension was then centrifuged (20 minutes, 15000×g), and the supernatant was loaded on a NI-NTA Superflow column (Qiagen) pre-equilibrated with 5 volumes of resuspension buffer. The column was washed with 5 column volumes of resuspension buffer containing 10 mM imidazole. The protein was then eluted using resuspension buffer containing 225 mM imidazole. The eluate was dialysed against 0.1 M NaCl, 20 mM Tris, pH 8.0, and 2% LDAO (Fluka) overnight, and then concentrated via centrifugation to 4 mg/mL.
To assay direct binding of erastin analogs, 40 μg of purified VDAC2 was resuspended in 100 μL of Binding Buffer (25 mM HEPES, pH 8.0, 0.1% BSA, 7 mM MgCl2, 15 mM NaCl), and incubated in the presence of 20 μM radiolabelled erastin A9 and erastin A9 or erastin A8 for 15 minutes. The mixture was then deposited onto Protran BA85 0.45 μM binding filters (Whatman) using vacuum filtration. The filter was rinsed 5 times with 1 mL wash buffer (25 mM HEPES, 0.1% BSA), and then incubated in 5 mL scintillation liquid (Cytoscint, MP Biomedicals). Radioactivity was detected on a LKB Wallac 1211 RACKBETA Liquid Scintillation Counter.

[1] = test system: BJ-TERT/LT/ST/RAS^V12 cells; assay: Alamar Blue viability assay; assay type: cell-based, human; conditions: BJ-TERT/LT/ST/RAS^V12 cells versus BJ-TERT cells
Procedure: (a) Calu-1 lung carcinoma cells harboring oncogenic KRAS were infected with lentivirus containing shRNAs targeting KRAS or GFP. Sequences of shRNAs are indicated by starting nucleotide (nt) in the KRAS mRNA coding sequence. Cells were treated with erastin and viability measured by Trypan Blue exclusion. (b) Knockdown of KRAS was confirmed by western blot. (c,d) A673 cells harboring oncogenic BRAF were infected with lentiviral shRNAs targeting BRAF exon 5 (c) or the 5′ UTR (d), luciferase (LUC) (c) or GFP (d). Cells were treated with erastin and viability measured using Alamar Blue (c) and Trypan Blue (d). (e) Knockdown of BRAF was confirmed by western blot. […] BJ-TERT/LT/ST/RAS^V12 cells were treated with erastin alone or in with a MEK inhibitor U0126 (20 μM), MEK inhibitor I (10 μM) or MEK 1/2 inhibitor (50 μM). After 48 h, viability was determined using Trypan Blue. (g) Structures of certain erastin and related analogs. (h) and (i) Dose-response curves were measured for erastin A3 and erastin B2 in BJ-TERT/LT/ST/RAS^V12 cells (black squares) or BJ-TERT cells (grey circles). (j) Calu-1 lung carcinoma cells harboring oncogenic KRAS were infected with lentivirus containing shRNAs targeting KRAS or GFP. Sequences of shRNAs are indicated by starting nucleotide (nt) in the KRAS mRNA coding sequence. Cells were treated with erastin and viability (y-axis) measured by Trypan Blue exclusion. Cells were treated with erastin for 24 hours, and percent inhibition of viability (y-axis) measured using Alamar Blue (k) and Trypan Blue (l). (m) Structures of erastin and related analogs. (n) Dose-response curves were measured for erastin A6, erastin B2, erastin A8 and erastin A9 in BJ-TERT/LT/ST/RAS^V12 cells (squares) or BJ-TERT cells (circles) using Alamar Blue.
Alamar Blue metabolism: 10% Alamar Blue was added to assay plates, which were then incubated for an additional 16 hours. Red fluorescence, resulting from reduction of Alamar Blue, was detected on a Victor3 platereader (ex: 530, em: 590).
Table 2. Activity of RAS-selective lethal compound erastin in tumor cell lines. IC50 values (ng/mL) are shown using the Alamar Blue viability assay. BJ engineered tumor cells express TERT, LT, ST, and oncogenic RAS. Isogenic RAS^V12 lacking cells are identical but lack HRAS^V12. BJ-DRD cells are derived from BJ cells and contain TERT, oncogenic RAS, a truncated from of p53 (p53DD) that disrupts the tetramerization of endogenous p53, a CDK4(R24C) mutant resistant to inhibition by p16INK4A and p151NK4B (the major negative regulators of CDK4) and cyclin D1. These latter protein substitute for LT. HCT-116, A549, Calu-1, and MIA PaCa-2 are tumor cells derived from cancers (colon, lung, lung and pancreatic, respectively) known to have activating mutations in RAS.

murine VDAC3 = biological target: T2, murine VDAC3 (Mus musculus, UniProt Q60931); assay: NADH oxidation assay in mitochondria from yeast expressing VDAC3; assay type: biochemical; conditions: mitochondria from yeast expressing VDAC3 in place of yeast VDAC
T2 construct: expressed in transfected cells; host or cells: yeast (S. cerevisiae) with murine VDAC3 in place of yeast VDAC; isolated mitochondria
T2 sequence (Q60931 1-283): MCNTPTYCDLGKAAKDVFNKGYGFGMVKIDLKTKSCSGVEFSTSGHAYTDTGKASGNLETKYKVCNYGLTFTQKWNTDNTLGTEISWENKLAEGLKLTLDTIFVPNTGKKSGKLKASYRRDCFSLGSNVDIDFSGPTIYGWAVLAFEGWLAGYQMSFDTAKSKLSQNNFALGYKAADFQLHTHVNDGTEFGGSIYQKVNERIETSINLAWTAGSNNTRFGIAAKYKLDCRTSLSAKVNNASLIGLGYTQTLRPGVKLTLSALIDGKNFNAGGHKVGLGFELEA
Procedure: In certain embodiments, mitochondria can be purified from yeast that had been engineered to express murine or human VDAC3 in place of yeast VDAC.
Mitochondria were isolated from yeast expressing murine VDAC3 in place of yeast VDAC. The rate of NADH oxidation by an inner membrane NADH dehydrogenase was determined by measuring the change in NADH absorbance over time. Mitochondria with a disrupted outer membrane show an increased rate of NADH oxidation (red, shocked) compared to untreated mitochondria (green).
NADH oxidation in the mitochondria was measured by resuspending mitochondria isolated from yeast in R-buffer (0.65 M sucrose, 10 mM HEPES (pH 7.5), 10 mM KH2PO4, 5 mM KCl, 5 mM, MgCl2) to a final concentration of 100 μg/ml. Mitochondrial concentration was measured by dissolving mitochondria in 0.6% SDS and reading absorbance at 280 nm. The mitochondrial suspension was then incubated with 25 μM NADH, and the absorbance at 340 nm monitored over a 15 minute period. The assay was repeated in the presence of erastin. To assess mitochondrial intactness, a parallel assay was run in which mitochondria were hypotonically shocked prior to addition of NADH. The mitochondrial pellet was resuspended in dH2O and incubated on ice for 3 minutes to disrupt the outer mitochondrial membrane. 2× R-buffer was then added to restore normal osmotic conditions.

[2] = test system: BJ-TERT/LT/ST/RAS^V12 cells; assay: Cell death, viable cells counted using a hemacytometer; assay type: cell-based, human; conditions: 13 μM erastin A1, 23 μM antimycin, 126 μM 2-methoxyestradiol or the combinations
[3] = test system: BJ-TERT/LT/ST/RAS^V12 cells; assay: Suppression of erastin-induced cell death (suppressor screen and follow-up); assay type: cell-based, human; conditions: co-treatment with erastin
[4] = test system: BJ-TERT/LT/ST/RAS^V12 cells; assay: Annexin V staining; assay type: cell-based, human; conditions: camptothecin 1 μM
Procedure: The percentage of cells in the indicated Ml region were 6%, 6%, and 38% in untreated, erastin-treated (9 μM), and camptothecin-treated (1 μM), respectively.

| Compound | PARP1 cleavage (PARP1) | Cell death (%) [2] [%] | Effect on erastin-induced cell death [3] | also measured |
| --- | --- | --- | --- | --- |
| CN[C@@H]1C[C@H]2O[C@@](C)([C@@H]1OC)n1c3ccccc3c3c4c(c5c6ccccc6n2c5c31)C(=O)NC4 [staurosporine, reference compound] | cleaved from 110 kD to 85 kD |  |  | Cytochrome c release from mitochondria (cytochrome c): released |
| CCOc1ccccc1-n1c(C(C)N2CCN(C(C)=O)CC2)nc2ccccc2c1=O (centres unmarked) [erastin A8, 2-[1-(4-Acetyl-piperazin-1-yl)-ethyl]-3-(2-ethoxy-phenyl)-3H-quinazolin-4-one] |  |  |  | Direct binding to VDAC2 (VDAC2): unlike the inactive erastin A8, directly binds VDAC2; Selective lethality / activity of erastin analog [1]: inactive; Rate of NADH oxidation / permeability of outer mitochondrial membrane to NADH (murine VDAC3): had no effect on mitochondrial membrane permeability |
| antimycin |  | 51 | partially suppressed erastin-induced cell death |  |
| COc1cc2c(cc1O)CC[C@@H]1[C@@H]2CC[C@]2(C)[C@@H](O)CC[C@@H]12 [2-ME, 2-methoxyestradiol] |  | 66 | partially suppressed erastin-induced cell death |  |
| CC[C@@]1(O)C(=O)OCc2c1cc1n(c2=O)Cc2cc3ccccc3nc2-1 [camptothecin, reference compound] | degraded |  |  | percentage of cells in M1 region (Annexin V staining) [4]: 38% |
